# Reference: ChEMBL document CHEMBL1777809, “Osteogenic activity of diphenyl ether-type cyclic diarylheptanoids derived from Acer nikoense” (Bioorg Med Chem Lett, 2011)
# Active and inactive are the calls of the source. The calls are words filed in the database; no cut-off is given here.
# Key:
# MC3T3-E1 [1] = experiment: Induction of cells differentiation in mouse MC3T3-E1 cells assessed as increase in osteocalcin production after 14 days by EIA; assay type: functional, cell-based
# MC3T3-E1 [2] = experiment: Induction of osteogenesis in mouse MC3T3-E1 cells assessed as cell differentiation at 30 uM after 6 days by alkaline phosphatase activity assay; assay type: functional, cell-based
# [3] = Cytotoxicity against mouse MC3T3-E1 cells at 30 uM after 6 days; assay type: cell-based; settings: mc3t3-e1, 144 h
# MC3T3-E1 [4] = experiment: Induction of cells differentiation in mouse MC3T3-E1 cells assessed as increase in mineralization after 14 days by Alizarin Red S staining; assay type: functional, cell-based
# RAW264 = experiment: Induction of osteoclast differentiation in mouse RAW264 cells assessed as TRAP activity; assay type: functional, cell-based
# MC3T3-E1 [5] = experiment: Induction of osteogenesis in mouse MC3T3-E1 cells assessed as increase in alkaline phosphatase activity after 6 days; assay type: functional, cell-based
# MC3T3-E1 [6] = experiment: Induction of osteogenesis in mouse MC3T3-E1 cells assessed as increase in alkaline phosphatase activity at 30 uM after 6 days in presence of 50 ng/ml noggin BMP antagonist; assay type: functional, cell-based
# Mus musculus = species: Mus musculus; experiment: Induction of osteogenesis in mouse primary calvarial cells assessed as increase in alkaline phosphatase activity measured by ALP staining after 14 days; assay type: functional
# MC3T3-E1 [7] = experiment: Induction of osteogenesis in mouse MC3T3-E1 cells assessed as increase in alkaline phosphatase activity at 30 uM after 6 days in presence of 5 uM SB203580 p38 MAPK inhibitor; assay type: functional, cell-based
# MC3T3-E1 [8] = experiment: Induction of osteogenesis in mouse MC3T3-E1 cells assessed as increase in alkaline phosphatase activity at 30 uM after 6 days in presence of 0.1 uM LDN-193289 BMP receptor kinase inhibitor; assay type: functional, cell-based
Compound,Activity (MC3T3-E1 [1]),Activity (MC3T3-E1 [2]),Activity [3],Activity (MC3T3-E1 [4]),Activity (RAW264),Activity (MC3T3-E1 [5]),Activity (MC3T3-E1 [6]),Activity (Mus musculus),Activity (MC3T3-E1 [7]),Activity (MC3T3-E1 [8])
Oc1ccc2cc1Oc1ccc(cc1)CCCC[C@@H](O)CC2,Active,Active,Non-toxic,Dose-dependent effect,inactive,,,,,
C[C@H](O)CCc1ccc(O)cc1,,inactive,Non-toxic,,inactive,,,,,
Oc1ccc(CCCC[C@@H](O)CCc2ccc(O)cc2)cc1,,,Toxic,,inactive,,,,,
Oc1ccc2cc1Oc1ccc(cc1)CC[C@H](O)CCCC2 [ACEROGENIN A],Active,Active,Non-toxic,Dose-dependent effect,inactive,Dose-dependent effect,inactive,Active,inactive,inactive
OC[C@H]1O[C@@H](Oc2ccc3cc2Oc2ccc(cc2)CCCC[C@@H](O)CC3)[C@H](O)[C@@H](O)[C@@H]1O [ACEROSIDE B1],Active,Active,Non-toxic,Dose-dependent effect,inactive,,,,,
OC[C@@]1(O)CO[C@@H](OC[C@H]2O[C@@H](O[C@@H]3CCCCc4ccc(O)c(c4)Oc4ccc(cc4)CC3)[C@H](O)[C@@H](O)[C@@H]2O)[C@@H]1O [ACEROSIDE III],,Active,Non-toxic,,inactive,,,,,
OC[C@H]1O[C@H](Oc2ccc3cc2Oc2ccc(cc2)CC[C@@H](O)CCCC3)[C@H](O)[C@@H](O)[C@@H]1O [ACEROSIDE I],Active,Active,Non-toxic,Dose-dependent effect,inactive,,,,,
Oc1cc(O)c2c(c1)O[C@H](c1ccc(O)c(O)c1)[C@@H](O)C2 [CIANIDANOL],,,Non-toxic,,inactive,,,,,
